Results: patent publication US20240368177A1, “5-AMINO-6,8-DIHYDRO-1H-FURO[3,4-d]PYRROLO[3,2-b]PYRIDINE-2-CARBOXAMIDE DERIVATIVES AS MTA-COOPERATIVE INHIBITORS OF PRMT5” (BeiGene Switzerland GmbH, priority 2023, published 2024)

What was measured:
[1] = test system: HCT116-MTAP-KO; assay: Cell killing in HCT116 isogenic pair (Cell Titer-Glo viability), MTAP knock-out cells; type: cell-based, human; conditions: Homo sapiens, HCT-116, 144 h, 6 days incubation, 0-10 μM, * = more than 50% viability inhibition at tested concentration without a full curve
Outline: (§1)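 HCT116 MTAP-knockout or mock-knockout (MTAP wildtype) cells in RPMI 1640 with 10% FBS were seeded overnight, then exposed to test compound at 0–10 μM final for 6 days at 37° C. Viability was measured by CellTiter-Glo luminescence and IC50 was fitted.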

[2] = test system: HCT116-mock-RNA-KO; assay: Cell killing in HCT116 isogenic pair (Cell Titer-Glo viability), mock knock-out cells with MTAP wildtype genotype; type: cell-based, human; conditions: Homo sapiens, HCT-116, 144 h, 6 days incubation, 0-10 μM
Outline: as §1

C[C@@H](c1ncccn1)N(Cc1ccc(-c2c(F)cccc2F)cn1)C(=O)c1cc2nc(N)c3c(c2[nH]1)COC3 [Example 17, (S)-5-amino-N-((5-(2,6-difluorophenyl)pyridin-2-yl)methyl)-N-(1-(pyrimidin-2-yl)ethyl)-6,8-dihydro-1H-furo[3,4-d]pyrrolo[3,2-b]pyridine-2-carboxamide]
IC50 [1]: 8.2 nM
IC50 [2]: 1050 nM

CCN(C(=O)c1cc2nc(N)c3c(c2[nH]1)COC3)[C@H]1COCc2cc(F)cc(F)c21 [Example 76, (R)-5-amino-N-(5,7-difluoroisochroman-4-yl)-N-ethyl-6,8-dihydro-1H-furo[3,4-d]pyrrolo[3,2-b]pyridine-2-carboxamide]
IC50 [1]: 2110 nM
IC50 [2]: > 10000 nM

CN(C(=O)c1cc2nc(N)c3c(c2[nH]1)COC3)[C@@H]1COCc2cc(Br)cc(F)c21 [Example 96, (S)-5-amino-N-(7-bromo-5-fluoroisochroman-4-yl)-N-methyl-6,8-dihydro-1H-furo[3,4-d]pyrrolo[3,2-b]pyridine-2-carboxamide]
IC50 [1]: 7.2 nM
IC50 [2]: 1930 nM

CO[C@@H]1CCOC[C@H]1N(Cc1ccc(-c2c(F)cccc2F)cc1F)C(=O)c1cc2nc(N)c3c(c2[nH]1)COC3 [Example 14, 5-amino-N-((3R,4R)-4-methoxytetrahydro-2H-pyran-3-yl)-N-((2′,3,6′-trifluoro-[1,1′-biphenyl]-4-yl)methyl)-6,8-dihydro-1H-furo[3,4-d]pyrrolo[3,2-b]pyridine-2-carboxamide]
IC50 [1]: < 1.5 nM
IC50 [2]: 554 nM

N#Cc1cc(F)c(CN(C(=O)c2cc3nc(N)c4c(c3[nH]2)COC4)[C@@H]2CCCc3cccnc32)c(F)c1 [Example 21, (R)-5-amino-N-(4-cyano-2,6-difluorobenzyl)-N-(5,6,7,8-tetrahydroquinolin-8-yl)-6,8-dihydro-1H-furo[3,4-d]pyrrolo[3,2-b]pyridine-2-carboxamide]
IC50 [1]: < 1.5 nM
IC50 [2]: 7 nM

Nc1nc2cc(C(=O)N(Cc3ccc(C(F)(F)F)nn3)Cc3c(F)cccc3F)[nH]c2c2c1COC2 [Example 37, 5-amino-N-(2,6-difluorobenzyl)-N-((6-(trifluoromethyl)pyridazin-3-yl)methyl)-6,8-dihydro-1H-furo[3,4-d]pyrrolo[3,2-b]pyridine-2-carboxamide]
IC50 [1]: 13 nM
IC50 [2]: 1680 nM

COC[C@@H](C)N(Cc1ncc(Br)cc1F)C(=O)c1cc2nc(N)c3c(c2[nH]1)COC3 [Example 49, (R)-5-amino-N-((5-bromo-3-fluoropyridin-2-yl)methyl)-N-(1-methoxypropan-2-yl)-6,8-dihydro-1H-furo[3,4-d]pyrrolo[3,2-b]pyridine-2-carboxamide]
IC50 [1]: 6.1 nM
IC50 [2]: 835 nM

Nc1nc2cc(C(=O)N(Cc3c(F)cccc3F)Cc3c(F)cccc3F)[nH]c2c2c1COC2 [Example 3, 5-amino-N,N-bis(2,6-difluorobenzyl)-6,8-dihydro-1H-furo[3,4-d]pyrrolo[3,2-b]pyridine-2-carboxamide]
IC50 [1]: 2.4 nM
IC50 [2]: 221 nM

CO[C@@H]1CCOC[C@H]1N(Cc1ccc(-c2c(F)cccc2F)cn1)C(=O)c1cc2nc(N)c3c(c2[nH]1)COC3 [Example 4, 5-amino-N-((5-(2,6-difluorophenyl)pyridin-2-yl)methyl)-N-((3R,4R)-4-methoxytetrahydro-2H-pyran-3-yl)-6,8-dihydro-1H-furo[3,4-d]pyrrolo[3,2-b]pyridine-2-carboxamide]
IC50 [1]: 2.3 nM
IC50 [2]: 99 nM

COC[C@@H](C)N(Cc1ncc(C2CC2)cc1F)C(=O)c1cc2nc(N)c3c(c2[nH]1)COC3 [Example 56, (R)-5-amino-N-((5-cyclopropyl-3-fluoropyridin-2-yl)methyl)-N-(1-methoxypropan-2-yl)-6,8-dihydro-1H-furo[3,4-d]pyrrolo[3,2-b]pyridine-2-carboxamide]
IC50 [1]: 5 nM
IC50 [2]: 146 nM

CN(C(=O)c1cc2nc(N)c3c(c2[nH]1)COC3)[C@@H]1CCOc2cc(C(F)(F)F)ccc21 [Example 162, (R)-5-amino-N-methyl-N-(7-(trifluoromethyl)chroman-4-yl)-6,8-dihydro-1H-furo[3,4-d]pyrrolo[3,2-b]pyridine-2-carboxamide]
IC50 [1]: 186 nM
IC50 [2]: > 10000 nM

CCN(C(=O)c1cc2nc(N)c3c(c2[nH]1)COC3)[C@H](C)c1ccc(C(F)(F)F)cn1 [Example 115, (R)-5-amino-N-ethyl-N-(1-(5-(trifluoromethyl)pyridin-2-yl)ethyl)-6,8-dihydro-1H-furo[3,4-d]pyrrolo[3,2-b]pyridine-2-carboxamide]
IC50 [1]: 43 nM
IC50 [2]: 6820 nM

CCN(C(=O)c1cc2nc(N)c3c(c2[nH]1)CO[C@@H]3C)[C@H](C)c1ccc(Br)cc1F [Example 124, (R)-5-amino-N—((R)-1-(4-bromo-2-fluorophenyl)ethyl)-N-ethyl-6-methyl-6,8-dihydro-1H-furo[3,4-d]pyrrolo[3,2-b]pyridine-2-carboxamide]
IC50 [1]: 22 nM
IC50 [2]: 2470 nM

C[C@H](c1ncccn1)N(Cc1ncc(C(F)(F)F)cc1F)C(=O)c1cc2nc(N)c3c(c2[nH]1)COC3 [Example 35, (R)-5-amino-N-((3-fluoro-5-(trifluoromethyl)pyridin-2-yl)methyl)-N-(1-(pyrimidin-2-yl)ethyl)-6,8-dihydro-1H-furo[3,4-d]pyrrolo[3,2-b]pyridine-2-carboxamide]
IC50 [1]: 11 nM
IC50 [2]: 1530 nM

C[C@H](c1ncccn1)N(Cc1ccc(-c2c(F)cccc2F)cn1)C(=O)c1cc2nc(N)c3c(c2[nH]1)COC3 [Example 18, (R)-5-amino-N-((5-(2,6-difluorophenyl)pyridin-2-yl)methyl)-N-(1-(pyrimidin-2-yl)ethyl)-6,8-dihydro-1H-furo[3,4-d]pyrrolo[3,2-b]pyridine-2-carboxamide]
IC50 [1]: 1.8 nM
IC50 [2]: 96 nM

CN(C(=O)c1cc2nc(N)c3c(c2[nH]1)COC3)[C@H]1COC2(CC2)c2cc(C(F)(F)F)cc(F)c21 [Example 167, (R)-5-amino-N-(5′-fluoro-7′-(trifluoromethyl)spiro[cyclopropane-1,1′-isochroman]-4′-yl)-N-methyl-6,8-dihydro-1H-furo[3,4-d]pyrrolo[3,2-b]pyridine-2-carboxamide]
IC50 [1]: 697 nM
IC50 [2]: 3320 nM

C[C@H]1OCc2c1c(N)nc1cc(C(=O)N(C)[C@@H](C)c3ccc(Br)cc3F)[nH]c21 [Example 140, (R)-5-amino-N—((S)-1-(4-bromo-2-fluorophenyl)ethyl)-N,6-dimethyl-6,8-dihydro-1H-furo[3,4-d]pyrrolo[3,2-b]pyridine-2-carboxamide]
IC50 [1]: 270 nM
IC50 [2]: 3030 nM

CCN(C(=O)c1cc2nc(N)c3c(c2[nH]1)COC3)[C@H](C)c1ncc(N2CCOCC2)cc1F [Example 132, 5-amino-N-ethyl-N-(1-(3-fluoro-5-morpholinopyridin-2-yl)ethyl)-6,8-dihydro-1H-furo[3,4-d]pyrrolo[3,2-b]pyridine-2-carboxamide]
IC50 [1]: 45 nM
IC50 [2]: > 10000 nM

CCN(C(=O)c1cc2nc(N)c3c(c2[nH]1)COC3)[C@@H]1CO[C@H](C)c2cc(C(F)(F)F)ccc21 [Example 89, 5-amino-N-ethyl-N-((1R,4S)-1-methyl-7-(trifluoromethyl)isochroman-4-yl)-6,8-dihydro-1H-furo[3,4-d]pyrrolo[3,2-b]pyridine-2-carboxamide]
IC50 [1]: 4.1 nM
IC50 [2]: 446 nM

C[C@H]1OC[C@H](N(C)C(=O)c2cc3nc(N)c4c(c3[nH]2)COC4)c2ccc(Br)cc21 [Example 79, 5-amino-N-((1R,4R)-7-bromo-1-methylisochroman-4-yl)-N-methyl-6,8-dihydro-1H-furo[3,4-d]pyrrolo[3,2-b]pyridine-2-carboxamide]
IC50 [1]: 525 nM
IC50 [2]: 3280 nM
